The source of these data is US20260103468A1, “FUSED RING COMPOUND, PHARMACEUTICAL COMPOSITION, AND USE THEREOF” (Hainan Simcere Zaiming Pharmaceutical Co., Ltd., priority 2022, published 2026).

The structures appear in SMILES notation.

Assay [1] has as its target T1, GST-labeled human Cereblon WT (Homo sapiens, UniProt Q96SW2).
T1 construct: purchased
In words: Cereblon binding experiment (HTRF Human Cereblon Binding Kit). The settings on record: HTRF competition with XL665-labeled lenalidomide tracer; incubated at room temperature for 3 hours; read-out: IC50 (binding ability to Cereblon). From the text: The detection kit (HTRF Human Cereblon Binding Kits) used in the experiment was a detection method for quantitative measurement of Cereblon WT ligand using HTRF® technology. The detection principle was based on HTRF technology. The specifically labeled GST antibody (Eurum Cryptate, donor) bound to the GST-labeled human Cereblon WT ligand and the XL665-labeled lenalidomide tracer (acceptor) at the same time. The donor was excited with a light source to initiate fluorescence resonance energy transfer (FRET) to the acceptor. The acceptor emitted fluorescence at a specific wavelength of 665 nm. After adding the compound, the compound competed with XL665-labeled lenalidomide to prevent FRET. The FRET signal ratio was inversely proportional to the compound concentration.
Compounds of the present disclosure were dissolved in DMSO, with a mother liquor storage concentration of 10 mM. […] The HTRF signal in each well was measured using an Envision plate reader. […]
The ratio of acceptor and donor emission signals was calculated for each well: […]
Data analysis was performed by GraphPad Prism 9. The concentration-effect curves were obtained using a nonlinear four-parameter fitting, and IC50 of compounds was calculated: […]
The binding ability of the compounds of the present disclosure to Cereblon was determined by the above assay, and the measured IC50 values were shown in Table 1.

For the next assay, the target named is T2, GSPT1 protein (Homo sapiens, UniProt P15170+Q96SW2).
T2 construct: endogenous in cells; host or cells: CAL51
In words: Degradation activity experiment on intracellular GSPT1 protein in CAL51 cells. It is filed as cell-based. To be noted: anti-GSPT1/anti-α-Tubulin antibody staining in 384-well plate; for DC50: 6 hours; for Dmax: CAL-51, 6 hours, read-out: Maximum degradation rate (%) (GSPT1 protein degradation activity). As to the method:
The medium of CAL51 (CBP60360, Kebai) was removed, and PBS was added for rinsing once, and then digested with trypsin (Trypsin-EDTA (0.25%)) for 5 minutes. After digestion, 10 mL of complete medium (DMEM containing 10% FBS[…]) was added to neutralize trypsin, and the cells were then pipetted, collected, centrifuged at 300 g for 5 min. The cell density was adjusted to 266,667 cells/mL. 30 μL of the cell suspension was added to a 384 well plate. The plate was centrifuged at 300 g for 1 min and then incubated in a cell incubator overnight.
Compounds of the present disclosure were dissolved in DMSO, with a mother liquor storage concentration of 10 mM. The gradient dilution of compound mother liquor was carried out through the dose-response program of the compound dilution and loading instrument. The total experimental volume of the dilution program was 30 μL, with the initial concentration of 100 μM for the tested compound. A4-fold dilution was performed, resulting in 10 concentration points. The positive control compound was CC-885 in Test Example 2, the negative control was DMSO, and the DMSO content of all wells was 0.3%. After the procedure, then the plate was centrifuged and incubated in a carbon dioxide incubator for 6 hours.
After 6 hours of administration, the supernatant was discarded, the cells were washed with 50 μL of cold PBS, and then the cells were fixed with 50 μL/well of 4% paraformaldehyde/universal tissue fixation solution, and incubated at room temperature for 1 hour. The paraformaldehyde was discarded and 50 μL/well PBS-0.1% Triton X-100 was added to permeate cells for 30 minutes. PBS-Triton was discarded, 50 μL/well of blocking buffer (927-70001, Li-COR) was added, and incubated at room temperature for 1 hour. The blocking buffer was removed, and 30 μL/well of rabbit anti-GSPT1 (1: 300) (HPA052488, Sigma), mouse anti-α-Tubulin (1: 2000) (T6074, Sigma) primary antibody mixed antibody was added, and incubated at 4° C. overnight. The well was washed with 50 μL/well PBST (PBS containing 0.1% Tween-20) and soaked for 10 minutes per round for 4 times. 30 μL/well of goat anti-mouse 680RD (P/N 925-68070, Li-COR) and goat anti-rabbit 800CW (P/N 925-32211, Li-COR) secondary antibody mixture (1: 5000) was added and incubated at room temperature away from light for 1-1.5 hours. The well was washed with 50 μL/well PBST and soaked for 10 min per round for 4 times. The centrifuge plate was turned upside down, covered with toilet paper, then centrifuged at 1000 rpm/min for 1 minute, and the bottom of the plate was dried. A 384-well plate was scanned with an Azure WB imaging system (Sapphire) and the data was read.
The GSPT1 protein degradation activity of the compounds of the present disclosure in CAL51 cells was measured by the above assay, and the protein degradation rate of each sample well was calculated based on the raw data.
[formula] • Sample reading: refers to the signal value of the experimental group; • DSMO reference mean reading; refers to the mean signal value of the DSMO control group. No test compound was added to the […], and other operations were consistent with those of the experimental group.
Data analysis was performed by GraphPad Prism 9. The concentration-effect curves were obtained using a nonlinear four-parameter fitting, and DC50 of compounds was calculated:
[formula] • Wherein: • X: Log of the compound concentration. • Y: degradation rate (%); • Bottom is the minimum percent degradation: • Top is the maximum percent degradation: • HillSlope is the slope coefficient of the curve.

Another assay concerns CAL51 cells. In words: Anti-proliferative activity experiment on CAL51 cells (CellTiter-Glo 3D). Format: cell-based. The settings on record: Homo sapiens, CAL-51, 72 h, CAL51 cell spheroid, incubated 3 days. As to the method:
The medium of target cells CAL51 (CBP60360, Kebai) was removed, and PBS was added for rinsing once, and then digested with trypsin (Trypsin-EDTA (0.25%)) for 5 minutes. After digestion, 10 mL of complete medium (DMEM containing 10% FBS) was added to neutralize trypsin, and the cells were pipetted and collected, then centrifuged at 300 g for 5 min, counted. The cell density was adjusted to 40,000 cells/mL. 90 μL cell suspension was added to a 96-well low adsorption plate. 200 μL of PBS was added to the edge wells. The plate was centrifuged at 300 g for 5 minutes to form cell spheroid, which were then incubated in a cell incubator overnights. […]
The cells were removed from the incubator and returned to room temperature for […]. 50 μL of CellTiter-Glo® 3D Cell Viability Assay reagent was added, and the plate was shaked and mixed well for 10 minutes, and then the plate was read with an Envision plate reader.
The anti-proliferative activity of the compound of the present disclosure on CAL51 cells was measured by the above assay, and the cell growth inhibition rate of each sample well was calculated based on the raw data.
[formula] • Sample reading: refers to the signal value of the experimental group; • DMSO reference mean reading: refers to the mean signal value of the DMSO control group. […]
Background: Cellular ATP, detected with luciferase, serves as a proxy for viable cell number.

T2 sequence (P15170 whole entry): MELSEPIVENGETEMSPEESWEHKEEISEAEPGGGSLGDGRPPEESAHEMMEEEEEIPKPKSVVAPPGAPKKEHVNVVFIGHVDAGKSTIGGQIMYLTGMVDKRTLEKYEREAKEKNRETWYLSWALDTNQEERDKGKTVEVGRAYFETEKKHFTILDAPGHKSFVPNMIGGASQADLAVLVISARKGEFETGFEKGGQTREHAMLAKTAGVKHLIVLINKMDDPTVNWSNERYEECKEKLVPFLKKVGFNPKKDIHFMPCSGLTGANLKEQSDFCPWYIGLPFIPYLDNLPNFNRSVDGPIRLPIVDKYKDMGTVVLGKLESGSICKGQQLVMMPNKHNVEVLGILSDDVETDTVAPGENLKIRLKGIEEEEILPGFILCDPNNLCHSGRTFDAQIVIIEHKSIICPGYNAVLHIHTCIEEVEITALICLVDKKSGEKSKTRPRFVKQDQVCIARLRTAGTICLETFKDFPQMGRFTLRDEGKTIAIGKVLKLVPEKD
T2 sequence (Q96SW2 whole entry): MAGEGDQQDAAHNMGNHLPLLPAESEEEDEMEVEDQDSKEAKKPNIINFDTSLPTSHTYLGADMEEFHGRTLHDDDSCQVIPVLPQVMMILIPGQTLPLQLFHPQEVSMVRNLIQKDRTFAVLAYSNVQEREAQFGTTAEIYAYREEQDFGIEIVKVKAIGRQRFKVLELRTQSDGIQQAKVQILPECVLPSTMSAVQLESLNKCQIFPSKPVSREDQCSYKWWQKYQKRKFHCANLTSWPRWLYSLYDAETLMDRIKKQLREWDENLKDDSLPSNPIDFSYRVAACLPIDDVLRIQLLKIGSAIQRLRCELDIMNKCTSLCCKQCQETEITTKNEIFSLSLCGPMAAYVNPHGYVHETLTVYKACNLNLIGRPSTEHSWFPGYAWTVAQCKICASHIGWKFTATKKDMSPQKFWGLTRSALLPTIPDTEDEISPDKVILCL
T2 sequence (Q16531 whole entry partner): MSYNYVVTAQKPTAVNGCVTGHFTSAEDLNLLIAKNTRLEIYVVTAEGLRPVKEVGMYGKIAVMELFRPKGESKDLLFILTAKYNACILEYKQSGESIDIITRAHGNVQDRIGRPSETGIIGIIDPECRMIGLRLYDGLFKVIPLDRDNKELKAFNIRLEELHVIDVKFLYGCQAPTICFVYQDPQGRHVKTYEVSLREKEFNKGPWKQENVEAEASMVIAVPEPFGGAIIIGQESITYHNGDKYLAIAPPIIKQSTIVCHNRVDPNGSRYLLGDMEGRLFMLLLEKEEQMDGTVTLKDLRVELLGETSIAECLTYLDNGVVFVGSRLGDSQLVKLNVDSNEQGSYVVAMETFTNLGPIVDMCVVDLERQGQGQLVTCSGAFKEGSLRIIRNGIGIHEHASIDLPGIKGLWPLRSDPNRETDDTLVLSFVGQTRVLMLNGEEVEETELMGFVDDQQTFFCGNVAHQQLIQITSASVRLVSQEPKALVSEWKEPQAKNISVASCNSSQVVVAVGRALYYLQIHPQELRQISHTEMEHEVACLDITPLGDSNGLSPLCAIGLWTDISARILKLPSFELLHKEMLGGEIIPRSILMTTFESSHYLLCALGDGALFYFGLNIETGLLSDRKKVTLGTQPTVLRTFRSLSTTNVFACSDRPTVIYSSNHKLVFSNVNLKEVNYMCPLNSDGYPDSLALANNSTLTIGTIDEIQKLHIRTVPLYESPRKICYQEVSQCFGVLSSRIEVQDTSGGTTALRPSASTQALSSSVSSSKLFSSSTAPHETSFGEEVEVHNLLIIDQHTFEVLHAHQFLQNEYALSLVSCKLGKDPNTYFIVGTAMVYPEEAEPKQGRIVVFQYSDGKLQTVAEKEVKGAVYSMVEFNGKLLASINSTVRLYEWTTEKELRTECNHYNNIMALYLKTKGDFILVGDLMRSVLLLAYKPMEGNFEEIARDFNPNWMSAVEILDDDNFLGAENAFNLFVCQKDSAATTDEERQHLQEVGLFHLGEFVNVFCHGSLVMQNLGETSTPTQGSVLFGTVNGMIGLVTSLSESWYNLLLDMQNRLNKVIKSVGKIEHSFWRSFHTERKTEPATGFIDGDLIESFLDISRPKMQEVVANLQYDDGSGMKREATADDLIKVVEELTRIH
T1 sequence (Q96SW2 whole entry): as the sequence (Q96SW2 whole entry) above

A word on the IC50: it is the concentration that gives 50% inhibition. On to `O=C1CCC(N2Cc3cc4ccccc4n3C2=O)C(=O)N1` (centres unmarked) [Compound 1, 3-(3-oxo-1H-imidazo [1,5-a]indol-2 (3H)-yl) piperidine-2,6-dione], for which the concentration for half-maximal inhibition (IC50) in assay [1] lay within 1 to 10 µM. Usually DC50 stands for the concentration giving 50% degradation. As to `Cc1ccc(NC(=O)NCc2ccc3c(c2)cc2n3C(=O)N(C3CCC(=O)NC3=O)C2)cc1Cl` (centres unmarked) [Compound 2, 1-(3-chloro-4-methylphenyl)-3-((2-(2,6-dioxopiperidin-3-yl)-3-oxo-2,3-dihydro-1H-imidazo [1,5-a]indol-7-yl)methyl) urea], at GSPT1 protein, the DC50 worked out at 0.0863 µM and the Dmax worked out at 95.4%. For the molecule `Cc1ccc(NC(=O)OCc2ccc3c(c2)cc2n3C(=O)N(C3CCC(=O)NC3=O)C2)cc1Cl` (centres unmarked) [Compound 3, (2-(2,6-dioxopiperidin-3-yl)-3-oxo-2,3-dihydro-1H-imidazo [1,5-a]indol-7-yl) methyl-(3-chloro-4-methylphenyl) carbamate], at GSPT1 protein, the DC50 was determined as 0.0254 µM and the Dmax is 98.3%. The same molecule had a half-inhibitory concentration (IC50) in the assay with CAL51 cells of 0.039 µM.

Turning to `CNc1cc(C#CC(=O)NCc2ccc3c(c2)cc2n3C(=O)N(C3CCC(=O)NC3=O)C2)ccc1C` (centres unmarked) [Compound 4, N-((2-(2,6-dioxopiperidin-3-yl)-3-oxo-2,3-dihydro-1H-imidazo [1,5-a]indol-7-yl)methyl)-3-(4-methyl-3-(methylamino)phenyl) propinamide], on GSPT1 protein, it took 0.144 µM to reach half-maximal degradation (DC50) and the Dmax turned out to be 85.3%.

`O=C1CCC(N2Cc3cc4cc(COC(=O)Nc5cc(OC(F)(F)F)ccc5F)ccc4n3C2=O)C(=O)N1` (centres unmarked) [Compound 5, 2-(2,6-dioxopiperidin-3-yl)-3-oxo-2,3-dihydro-1H-imidazo [1,5-a] indol-7-yl) methyl (2-fluoro-5-trifluoromethoxy) phenyl) carbamate]: at GSPT1 protein, the DC50 amounted to 0.02 µM and the Dmax amounted to 96.7%.

Regarding `CNc1ccc(NC(=O)OCc2ccc3c(c2)cc2n3C(=O)N(C3CCC(=O)NC3=O)C2)cc1Cl` (centres unmarked) [Compound 8, (2-(2,6-dioxopiperidin-3-yl)-3-oxo-2,3-dihydro-1H-imidazo [1,5-a]indol-7-yl) methyl-(3-chloro-4-(methylamino)phenyl) carbamate], on GSPT1 protein, it took 0.013 µM to reach half-maximal degradation (DC50) and the Dmax was 94.6%. For `CNCCOCCc1cc(NC(=O)OCc2ccc3c(c2)cc2n3C(=O)N(C3CCC(=O)NC3=O)C2)ccc1Cl` (centres unmarked) [Compound 9, (2-(2,6-dioxopiperidin-3-yl)-3-oxo-2,3-dihydro-1H-imidazo [1,5-a]indol-7-yl) methyl-(4-chloro-3-(2-(2-(methylamino)ethoxy)ethyl)phenyl) carbamate], in that order: 1.46 µM and 69.6%. Regarding `Cc1ccc(NC(=O)OCc2cccc3c2cc2n3C(=O)N(C3CCC(=O)NC3=O)C2)cc1Cl` (centres unmarked) [Compound 13, 2-(2,6-dioxopiperidin-3-yl)-3-oxo-2,3-dihydro-1H-imidazo [1,5-a] indol-8-yl) methyl (3-chloro-4-methylphenyl) carbamate], on GSPT1 protein, the half-maximal degradation concentration (DC50) is 0.135 µM and the Dmax was determined as 96.3%.

Regarding `O=C1CCC(N2Cc3nc4ccccc4n3C2=O)C(=O)N1` (centres unmarked) [Compound 14, 3-(1-oxo-1H-benzo [d]imidazo [1,5-a]imidazol-2 (3H)-yl) piperidine-2,6-dione], the IC50 in assay [1] fell in the range of 1 to 10 µM.
